Reference: ChEMBL document CHEMBL1143910, “Synthesis of guanidino analogues of PMPDAP and their immunobiological activity” (Bioorg Med Chem, 2008)
The source made the active and inactive calls. The calls are words filed in the database; no cut-off is given here.

Assays:
[1] = tested on: Human immunodeficiency virus 1; assay: Antiviral activity against HIV1; type: functional, organism-based
[2] = tested on: Human immunodeficiency virus 2; assay: Antiviral activity against HIV2; type: functional, organism-based
Macrophage [3] = assay: Increase in IFN-gamma stimulated nitric oxide production in C57BL/6 mouse peritoneal macrophages at 100 uM after 24 hrs; type: functional, cell-based
Maize streak virus = assay: Antiviral activity against MSV; type: functional
[4] = Cytotoxicity against human HeLaS3 cells; type: cell-based; details: hela s3
L1210 = assay: Cytotoxicity against mouse L1210 cells; type: cell-based
L929 = assay: Cytotoxicity against mouse L929 cells; type: cell-based
[5] = Activation of TNFalpha secretion in C57BL/6 mouse peritoneal macrophages at 100 uM after 16 hrs by ELISA; type: functional, cell-based; details: Macrophage
PBMC [6] = assay: Activation of RANTES secretion in human PBMC at 50 uM after 16 hrs by ELISA; type: functional, cell-based
Macrophage [7] = assay: Increase in IFN-gamma stimulated nitric oxide production in C57BL/6 mouse peritoneal macrophages at 10 to 25 uM after 24 hrs; type: functional, cell-based
PBMC [8] = assay: Activation of MIP1-alpha secretion in human PBMC at 50 uM after 16 hrs by ELISA; type: functional, cell-based
Macrophage [9] = assay: Activation of RANTES secretion in C57BL/6 mouse peritoneal macrophages at 100 uM after 16 hrs by ELISA; type: functional, cell-based
Macrophage [10] = assay: Activation of MIP1-alpha secretion in C57BL/6 mouse peritoneal macrophages at 100 uM after 16 hrs by ELISA; type: functional, cell-based

Compound	Activity [1]	Activity [2]	Activity (Macrophage [3])	Activity (Maize streak virus)	Activity [4]	Activity (L1210)	Activity (L929)	Activity [5]	Activity (PBMC [6])	Activity (Macrophage [7])	Activity (PBMC [8])	Activity (Macrophage [9])	Activity (Macrophage [10])
C[C@@H](Cn1cnc2c(N=C(N)N)ncnc21)OCP(=O)(O)O	inactive	inactive	inactive	inactive	Not Active	Not Active	Not Active						
C[C@@H](Cn1cnc2cnc(N=C(N)N)nc21)OCP(=O)(O)O	inactive	inactive	inactive	inactive	Not Active	Not Active	Not Active						
C[C@H](Cn1cnc2cnc(N=C(N)N)nc21)OCP(=O)(O)O	inactive	inactive	inactive	inactive	Not Active	Not Active	Not Active						
C[C@@H](Cn1c(N=C(N)N)nc(N)c2ncnc1-2)OCP(=O)(O)O	inactive	inactive	Active	inactive	Not Active	Not Active	Not Active	Active	Active	Active	Active	Active	Active
C[C@@H](Cn1cnc2nc(N)nc(N=C(N)N)c21)OCP(=O)(O)O	inactive	inactive	Active	inactive	Not Active	Not Active	Not Active						
C[C@H](Cn1cnc2c(N=C(N)N)ncnc21)OCP(=O)(O)O	inactive	inactive	inactive	inactive	Not Active	Not Active	Not Active						
C[C@H](Cn1cnc2c(N)nc(N=C(N)N)nc21)OCP(=O)(O)O	inactive	inactive	inactive	inactive	Not Active	Not Active	Not Active						
C[C@H](Cn1cnc2ncnc(N=C(N)N)c21)OCP(=O)(O)O	inactive	inactive	inactive	inactive	Not Active	Not Active	Not Active						
C[C@H](Cn1cnc2c(N=C(N)N)nc(N)nc21)OCP(=O)(O)O	inactive	inactive	Active	inactive	Not Active	Not Active	Not Active	Active	Active	Active	Active	Active	Active
C[C@H](Cn1cnc2nc(N)nc(N=C(N)N)c21)OCP(=O)(O)O	inactive	inactive	Active	inactive	Not Active	Not Active	Not Active						
C[C@H](Cn1cnc2nc(N=C(N)N)ncc21)OCP(=O)(O)O	inactive	inactive	inactive	inactive	Not Active	Not Active	Not Active						
C[C@@H](Cn1cnc2c(N)nc(N=C(N)N)nc21)OCP(=O)(O)O	inactive	inactive	inactive	inactive	Not Active	Not Active	Not Active						
C[C@@H](Cn1cnc2nc(N=C(N)N)ncc21)OCP(=O)(O)O	inactive	inactive	inactive	inactive	Not Active	Not Active	Not Active						
C[C@@H](Cn1cnc2c(N=C(N)N)nc(N)nc21)OCP(=O)(O)O	inactive	inactive	Active	inactive	Not Active	Not Active	Not Active						
C[C@@H](Cn1cnc2ncnc(N=C(N)N)c21)OCP(=O)(O)O	inactive	inactive	inactive	inactive	Not Active	Not Active	Not Active						
C[C@H](Cn1c(N=C(N)N)nc(N)c2ncnc1-2)OCP(=O)(O)O	inactive	inactive	Active	inactive	Not Active	Not Active	Not Active						
